The values that follow come from PubChem BioAssay (NCI).

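Compound exposure: 48 hours, 5 concentrations, 96-well plates. TGI: total growth inhibition.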

Some test systems named below: TK-10 renal; RXF 393 renal; CCRF-CEM leukemia; 786-0 renal; BT-549 breast; SNB-75 CNS; NCI/ADR-RES ovarian; HS 578T breast; SNB-19 CNS; SK-MEL-5 melanoma.
Holding throughout (assay): inhibition of tumour cell growth, NCI panel, 48 h

As for `COc1ccccc1-n1c(=O)n(C)c(=O)n1C(C)(C)C`, the TGI in the assay on TK-10 renal, with RXF 393 renal, in the assay with CCRF-CEM leukemia, in the assay with 786-0 renal, in the assay with BT-549 breast and in the assay on SNB-75 CNS was over 100 µM each time. In addition, the TGI in the assay on NCI/ADR-RES ovarian, with HS 578T breast, with SNB-19 CNS and in the assay with SK-MEL-5 melanoma was over 100 µM throughout.

For the compound `COC(=O)C1=C(OC(=O)/C(=C/c2ccccc2)c2ccc(OC)cc2)C(C(=O)OC)[C@@]2(O)[C@@H](C(=O)OC)[C@H](C)C[C@@H]1[C@@H]2C(=O)OC` (stereo not given in full), the TGI was over 100 µM with TK-10 renal; 64.7 µM with RXF 393 renal; over 100 µM in the assay on CCRF-CEM leukemia; over 100 µM in the assay on 786-0 renal; over 100 µM in the assay with BT-549 breast; over 100 µM with SNB-75 CNS. In addition, the TGI in the assay with NCI/ADR-RES ovarian is over 100 µM; in the assay with HS 578T breast it was 99.3 µM; in the assay with SNB-19 CNS, over 100 µM; in the assay with SK-MEL-5 melanoma, over 100 µM.

Turning to `Cn1nc2ccc(Nc3cc(=O)[nH]c4ccc5nn(C)nc5c34)cc2n1`, the TGI with TK-10 renal, in the assay on RXF 393 renal, in the assay with CCRF-CEM leukemia, in the assay with 786-0 renal, with BT-549 breast and with SNB-75 CNS was over 100 µM in each case. In addition, the TGI in the assay on NCI/ADR-RES ovarian, with HS 578T breast, in the assay with SNB-19 CNS and in the assay with SK-MEL-5 melanoma was over 100 µM in each case.

For the compound `O=C(O)CSc1ccccc1C(=O)O`, the TGI with TK-10 renal is 53.5 µM; with RXF 393 renal it was over 100 µM; in the assay with CCRF-CEM leukemia it was over 100 µM; with 786-0 renal, over 100 µM; in the assay with BT-549 breast, over 100 µM; with SNB-75 CNS, over 100 µM. Moreover, the TGI with NCI/ADR-RES ovarian, in the assay with HS 578T breast, in the assay with SNB-19 CNS and in the assay on SK-MEL-5 melanoma was over 100 µM throughout.

For `c1nc(NCCc2cnc[nH]2)c2[nH]cnc2n1`, the TGI in the assay with TK-10 renal, in the assay with RXF 393 renal, in the assay with CCRF-CEM leukemia, in the assay on 786-0 renal, with BT-549 breast and in the assay with SNB-75 CNS was over 100 µM in each case. Moreover, the TGI in the assay on NCI/ADR-RES ovarian, in the assay on HS 578T breast, in the assay with SNB-19 CNS and in the assay with SK-MEL-5 melanoma was over 100 µM throughout.

With `NNC(=O)Nc1nc2ccc(NN)cc2[nH]1`, the TGI in the assay with TK-10 renal was 82.6 µM; in the assay with RXF 393 renal it was 97.2 µM; in the assay on CCRF-CEM leukemia, 41.7 µM; in the assay with 786-0 renal it was over 100 µM; in the assay on BT-549 breast it was 84.1 µM; in the assay with SNB-75 CNS it was 84.2 µM. Moreover, the TGI with NCI/ADR-RES ovarian is over 100 µM; in the assay with HS 578T breast, over 100 µM; in the assay with SNB-19 CNS, over 100 µM; in the assay on SK-MEL-5 melanoma it was 51.9 µM.

Turning to `Cc1cccc2c(N)c3cccc(C(=O)NCC[N+](C)(C)Cc4ccc([N+](=O)[O-])s4)c3nc12`, the TGI with TK-10 renal was over 100 µM; in the assay with RXF 393 renal, 25.9 µM; with CCRF-CEM leukemia, 24.4 µM; in the assay on 786-0 renal, 27.8 µM; with BT-549 breast, over 70.5 µM; in the assay with SNB-75 CNS, 43.8 µM. Also, the TGI with NCI/ADR-RES ovarian was over 100 µM; with HS 578T breast, 34.6 µM; in the assay with SNB-19 CNS, 60.2 µM; in the assay with SK-MEL-5 melanoma, 28.2 µM.

On to `CCCCc1ccc(Nc2ncc3ncn(COCCO)c3n2)cc1`, for which the TGI is over 100 µM with TK-10 renal; 86.6 µM with RXF 393 renal; 60.6 µM in the assay with CCRF-CEM leukemia; over 100 µM in the assay with 786-0 renal; over 100 µM in the assay on BT-549 breast; 65.3 µM with SNB-75 CNS. Moreover, the TGI is over 100 µM in the assay on NCI/ADR-RES ovarian, 83.7 µM with HS 578T breast, over 100 µM in the assay with SNB-19 CNS and 49.6 µM with SK-MEL-5 melanoma.

Turning to `CC1CC[C@@]2(OC1)O[C@H]1[C@H](O)[C@H]3[C@@H]4CC[C@H]5C[C@@H](OC6OC(CO)C(OC7OC(CO)C(O)C(OC8OCC(O)C(O)C8O)C7OC7OC(CO)C(O)C(O)C7OC7OC(CO)C(O)C(O)C7O)C(O)C6O)[C@H](O)C[C@]5(C)[C@H]4CC[C@]3(C)[C@H]1[C@@H]2C` (stereo not given in full), the TGI was over 10 µM in the assay with TK-10 renal; over 10 µM with RXF 393 renal; 2.51 µM in the assay on CCRF-CEM leukemia; 9.37 µM with 786-0 renal; over 10 µM in the assay on BT-549 breast; over 10 µM with SNB-75 CNS. Besides, the TGI in the assay with NCI/ADR-RES ovarian, in the assay with HS 578T breast, in the assay on SNB-19 CNS and in the assay on SK-MEL-5 melanoma was over 10 µM each time.

Regarding `CCOC(=O)/C(C(N)=O)=C(\O)C(=O)/C(Br)=C(\O)c1ccccc1`, the TGI turned out to be 33.2 µM in the assay on TK-10 renal; 29.6 µM in the assay on RXF 393 renal; 3.54 µM in the assay on CCRF-CEM leukemia; 29.7 µM with 786-0 renal; 33.7 µM in the assay with BT-549 breast; 32.1 µM in the assay on SNB-75 CNS. The TGI with NCI/ADR-RES ovarian was 72.9 µM; with HS 578T breast, 50.1 µM; with SNB-19 CNS, over 69.1 µM; with SK-MEL-5 melanoma it was 30.5 µM.

As for `CCOC(=O)C1CC(C(=O)c2ccccc2)N2c3ccccc3-c3ccccc3C12` (stereo not given), the TGI in the assay with TK-10 renal, in the assay with RXF 393 renal, in the assay on CCRF-CEM leukemia, in the assay with 786-0 renal, in the assay on BT-549 breast and in the assay with SNB-75 CNS was over 100 µM each time. Further, the TGI in the assay with NCI/ADR-RES ovarian was over 100 µM; with HS 578T breast, 97.2 µM; in the assay with SNB-19 CNS, over 100 µM; in the assay with SK-MEL-5 melanoma it was over 100 µM.

With `Fc1cccc(F)c1C1SCc2nc3cc(Cl)c(Cl)cc3n21` (stereo not given), the TGI with TK-10 renal, in the assay with RXF 393 renal, in the assay with CCRF-CEM leukemia, with 786-0 renal, with BT-549 breast and in the assay with SNB-75 CNS was over 100 µM throughout. For the same compound, the TGI in the assay with NCI/ADR-RES ovarian, in the assay with HS 578T breast, in the assay with SNB-19 CNS and in the assay on SK-MEL-5 melanoma was over 100 µM throughout.

For `COC(=O)C1CC2(C)C=CC1N(C(=O)OCc1ccccc1)C2` (stereo not given), the TGI in the assay with TK-10 renal, with RXF 393 renal, with CCRF-CEM leukemia, in the assay with 786-0 renal, with BT-549 breast and with SNB-75 CNS was over 100 µM throughout. Besides, the TGI with NCI/ADR-RES ovarian, in the assay on HS 578T breast, in the assay on SNB-19 CNS and in the assay on SK-MEL-5 melanoma was over 100 µM each time.
